Measured values: patent publication US20100168176A1, “NOVEL COMPOUNDS, PHARMACEUTICAL COMPOSITIONS CONTAINING SAME, AND METHODS OF USE FOR SAME” (FASGEN LLC, priority 2006, published 2010)
Values after ≈ are worked out from the molar mass of the structure shown.

Legend:
H = test: Crystal violet cell growth assay, H; format: cell-based; settings: read-out: Cr. Violet (IC50)
Procedure: Crystal Violet Cell Growth Assay
The crystal violet assay measure cell growth but not cytotoxicity. This assay employs crystal violet staining of fixed cells in 96-well plates with subsequent solubilization and measurement of OD490 on a spectrophotometer. The OD490 corresponds to cell growth per unit time measured. Cells are treated with the compounds of interest or vehicle controls and IC50 for each compound is computed.
To measure the cytotoxicity of specific compounds against cancer cells, 5×10^4 MCF-7 human breast cancer cells, obtained from the American Type Culture Collection are plated per well in 24 well plates in DMEM medium with 10% fetal bovine serum, penicillin, and streptomycin. Following overnight culture at 37° C. and 5% CO2, the compounds to be tested, dissolved in DMSO, are added to the wells in 1 μl volume at the following concentrations: 50, 40, 30, 20, and 10 μg/ml in triplicate. Additional concentrations are tested if required. 1 μl of DMSO is added to triplicate wells are the vehicle control. C75 is run at 10, and 5 μg/ml in triplicate as positive controls.
After 72 hours of incubation, cells are stained with 0.5 ml of Crystal Violet stain (0.5% in 25% methanol) in each well. After 10 minutes, wells are rinsed, air dried, and then solubilized with 0.5 ml 10% sodium dodecylsulfate with shaking for 2 hours. Following transfer of 100 μl from each well to a 96-well plate, plates are read at OD490 on a Molecular Devices SpectraMax Plus Spectrophotometer Average OD490 values are computed using SOFTmax Pro Software (Molecular Devices) and IC50 values are determined by linear regression analysis using Prism version 3.02 (Graph Pad Software, San Diego).

FAO = FAO SC 150 / FAO Max; settings: for FAO Max: at the concentration given under E18
[1] = Weight loss screen in Balb/C mice; format: in vivo; settings: 60 mg/kg intraperitoneally
Procedure: Weight Loss Screen for Novel FAS Inhibitors
Balb/C mice (Jackson Labs) are utilized for the initial weight loss screening. Animals are housed in temperature and 12 hour day/night cycle rooms and fed mouse chow and water ad lib. Three mice are utilized for each compound tested with vehicle controls in triplicate per experiment. For the experiments, mice are housed separately for each compound tested three mice to a cage. Compounds are diluted in DMSO at 10 mg/ml and mice are injected intraperitoneally with 60 mg/kg in approximately 100 μl of DMSO or with vehicle alone. Mice are observed and weighed daily; average weights and standard errors are computed with Excel (Microsoft). The experiment continues until treated animals reach their pretreatment weights.

[2] = test system: MCF-7 human breast cancer cells; test: XTT cytotoxicity assay, MCF-7 (M); format: cell-based; settings: (M) or no code, MCF-7, 72 hours; for IC50: Homo sapiens, MCF7
Procedure: The XTT assay is a non-radioactive alternative for the [^51Cr] release cytotoxicity assay. XTT is a tetrazolium salt that is reduced to a formazan dye only by metabolically active, viable cells. The reduction of XTT is measured spectrophotometrically as OD490-OD650.
To measure the cytotoxicity of specific compounds against cancer cells, 9×10^3 MCF-7 human breast cancer cells, obtained from the American Type Culture Collection are plated per well in 96 well plates in DMEM medium with 10% fetal bovine serum, insulin, penicillin, and streptomycin. Following overnight culture at 37° C. and 5% CO2, the compounds to be tested, dissolved in DMSO, are added to the wells in 1 μl volume at the following concentrations: 80, 40, 20, 10, 5, 2.5, 1.25, and 0.625 μg/ml in triplicate. Additional concentrations are tested if required. 1 μl of DMSO is added to triplicate wells are the vehicle control. C75 is run at 40, 20, 10, […], 10, and 5 in triplicate as positive controls.
After 72 hours of incubation, cells are incubated for 4 hours with the XTT reagent as per manufacturer's instructions (Cell Proliferation Kit II (XTT) Roche). Plates are read at OD490 and OD650 on a Molecular Devices SpectraMax Plus Spectrophotometer. Three wells containing the XTT reagent without cells serve as the plate blank. XTT data are reported as OD490-OD650. Averages and standard error of the mean are computed using SOFTmax Pro software ([…]).
The IC50 for the compounds is defined as the concentration of drug leading to a 50% reduction in OD400-OD650 compared to controls. The OD400-OD650 are computed by the SOFTmax PRO software (Molecular Devices) for each compound concentration. IC50 is calculated by linear regression, plotting the FAS activity as percent of control versus drug concentrations. Linear regression, best-fit line, r^2, and 95% confidence intervals are determined using Prism Version 3.0 (Graph Pad Software).

[3] = test system: MCF-7 human breast cancer cells; test: [14C]acetate incorporation into total lipids; format: cell-based; settings: MCF7
Procedure: Measurement of [^14 C]acetate Incorporation into Total Lipids and Determination of IC50 of Compounds
This assay measures the incorporation of [^14C]acetate into total lipids and is a measure of fatty acid synthesis pathway activity in vitro. It is utilized to measure inhibition of fatty acid synthesis in vitro.
MCF-7 human breast cancer cells cultured as above, are plated at 5×10^4 cells per well in 24-well plates. Following overnight incubation, the compounds to be tested, solubilized in DMSO, are added at 5, 10, and 20 μg/ml in triplicate, with lower concentrations tested if necessary. DMSO is added to triplicate wells for a vehicle control. C75 is run at 5 and 10 μg/ml in triplicate as positive controls. After 4 hours of incubation, 0.25 μCi of [^14C]acetate (10 μl volume) is added to each well.
After 2 hours of additional incubation, medium is aspirated from the wells and 800 μl of chloroform:methanol (2:1) and 700 μl of 4 mM MgCl2 is added to each well. Contents of each well are transferred to 1.5 Eppendorf tubes, and spun at full-speed for 2 minutes in a high-speed Eppendorf Microcentrifuge 5415D. After removal of the aqueous (upper) layer, an additional 700 μl of chloroform:methanol (2:1) and 500 μl of 4 mM MgCl2 are added to each tube and then centrifuged for 1 minutes as above. The aqueous layer is removed with a Pasteur pipette and discarded. An additional 400 μl of chloroform:methanol (2:1) and 200 μl of 4 mM MgCl2 are added to each tube, then centrifuged and aqueous layer is discarded. The lower (organic) phase is transferred into a scintillation vial and dried at 40° C. under N2 gas. Once dried, 3 ml of scintillant (APB #NBC5104) is added and vials are counted for ^14C. The Beckman Scintillation counter calculates the average cpm values for triplicates.
The IC50 for the compounds is defined as the concentration of drug leading to a 50% reduction in [^14C]acetate incorporation into lipids compared to controls. This is determined by plotting the average cpm for each inhibitor concentration tested, performing linear regression and computing the best-fit line, r^2 values, and 95% confidence intervals. The average cpm values are computed by the Beckman scintillation counter (Model LS6500) for each compound concentration. Computation of linear regression, best-fit line, r^2, and 95% confidence intervals are calculated using Prism Version 3.0 (Graph Pad Software).

OV = test: XTT cytotoxicity assay, OV; format: cell-based
[4] = biological target: rat liver acyl-CoA synthetase; settings: rat liver enzyme; read-out: 50% inhibition of rat liver acyl-CoA synthetase; cited from earlier work
Raji cells = settings: cited from earlier work
[5] = test system: Mycobacterium tuberculosis; settings: in vitro; cited from earlier work
viral HIV protease = viral HIV protease (Human immunodeficiency virus type 1 group M subtype B, UniProt P04585); settings: cited from earlier work
purified human FAS = biological target: T1, purified human FAS (Homo sapiens, UniProt P49327); test: FAS enzymatic activity (malonyl-CoA dependent NADPH oxidation, OD340); format: biochemical; settings: purified human FAS from ZR-75-1 cells
T1 construct: Human FAS was purified from cultured ZR-75-1 human breast cancer cells; endogenous in cells; host or cells: ZR-75-1 human breast cancer cells (ATCC); Purified by hypotonic lysis, PEG precipitations and Mono Q anion exchange
T1 sequence (P49327 whole entry): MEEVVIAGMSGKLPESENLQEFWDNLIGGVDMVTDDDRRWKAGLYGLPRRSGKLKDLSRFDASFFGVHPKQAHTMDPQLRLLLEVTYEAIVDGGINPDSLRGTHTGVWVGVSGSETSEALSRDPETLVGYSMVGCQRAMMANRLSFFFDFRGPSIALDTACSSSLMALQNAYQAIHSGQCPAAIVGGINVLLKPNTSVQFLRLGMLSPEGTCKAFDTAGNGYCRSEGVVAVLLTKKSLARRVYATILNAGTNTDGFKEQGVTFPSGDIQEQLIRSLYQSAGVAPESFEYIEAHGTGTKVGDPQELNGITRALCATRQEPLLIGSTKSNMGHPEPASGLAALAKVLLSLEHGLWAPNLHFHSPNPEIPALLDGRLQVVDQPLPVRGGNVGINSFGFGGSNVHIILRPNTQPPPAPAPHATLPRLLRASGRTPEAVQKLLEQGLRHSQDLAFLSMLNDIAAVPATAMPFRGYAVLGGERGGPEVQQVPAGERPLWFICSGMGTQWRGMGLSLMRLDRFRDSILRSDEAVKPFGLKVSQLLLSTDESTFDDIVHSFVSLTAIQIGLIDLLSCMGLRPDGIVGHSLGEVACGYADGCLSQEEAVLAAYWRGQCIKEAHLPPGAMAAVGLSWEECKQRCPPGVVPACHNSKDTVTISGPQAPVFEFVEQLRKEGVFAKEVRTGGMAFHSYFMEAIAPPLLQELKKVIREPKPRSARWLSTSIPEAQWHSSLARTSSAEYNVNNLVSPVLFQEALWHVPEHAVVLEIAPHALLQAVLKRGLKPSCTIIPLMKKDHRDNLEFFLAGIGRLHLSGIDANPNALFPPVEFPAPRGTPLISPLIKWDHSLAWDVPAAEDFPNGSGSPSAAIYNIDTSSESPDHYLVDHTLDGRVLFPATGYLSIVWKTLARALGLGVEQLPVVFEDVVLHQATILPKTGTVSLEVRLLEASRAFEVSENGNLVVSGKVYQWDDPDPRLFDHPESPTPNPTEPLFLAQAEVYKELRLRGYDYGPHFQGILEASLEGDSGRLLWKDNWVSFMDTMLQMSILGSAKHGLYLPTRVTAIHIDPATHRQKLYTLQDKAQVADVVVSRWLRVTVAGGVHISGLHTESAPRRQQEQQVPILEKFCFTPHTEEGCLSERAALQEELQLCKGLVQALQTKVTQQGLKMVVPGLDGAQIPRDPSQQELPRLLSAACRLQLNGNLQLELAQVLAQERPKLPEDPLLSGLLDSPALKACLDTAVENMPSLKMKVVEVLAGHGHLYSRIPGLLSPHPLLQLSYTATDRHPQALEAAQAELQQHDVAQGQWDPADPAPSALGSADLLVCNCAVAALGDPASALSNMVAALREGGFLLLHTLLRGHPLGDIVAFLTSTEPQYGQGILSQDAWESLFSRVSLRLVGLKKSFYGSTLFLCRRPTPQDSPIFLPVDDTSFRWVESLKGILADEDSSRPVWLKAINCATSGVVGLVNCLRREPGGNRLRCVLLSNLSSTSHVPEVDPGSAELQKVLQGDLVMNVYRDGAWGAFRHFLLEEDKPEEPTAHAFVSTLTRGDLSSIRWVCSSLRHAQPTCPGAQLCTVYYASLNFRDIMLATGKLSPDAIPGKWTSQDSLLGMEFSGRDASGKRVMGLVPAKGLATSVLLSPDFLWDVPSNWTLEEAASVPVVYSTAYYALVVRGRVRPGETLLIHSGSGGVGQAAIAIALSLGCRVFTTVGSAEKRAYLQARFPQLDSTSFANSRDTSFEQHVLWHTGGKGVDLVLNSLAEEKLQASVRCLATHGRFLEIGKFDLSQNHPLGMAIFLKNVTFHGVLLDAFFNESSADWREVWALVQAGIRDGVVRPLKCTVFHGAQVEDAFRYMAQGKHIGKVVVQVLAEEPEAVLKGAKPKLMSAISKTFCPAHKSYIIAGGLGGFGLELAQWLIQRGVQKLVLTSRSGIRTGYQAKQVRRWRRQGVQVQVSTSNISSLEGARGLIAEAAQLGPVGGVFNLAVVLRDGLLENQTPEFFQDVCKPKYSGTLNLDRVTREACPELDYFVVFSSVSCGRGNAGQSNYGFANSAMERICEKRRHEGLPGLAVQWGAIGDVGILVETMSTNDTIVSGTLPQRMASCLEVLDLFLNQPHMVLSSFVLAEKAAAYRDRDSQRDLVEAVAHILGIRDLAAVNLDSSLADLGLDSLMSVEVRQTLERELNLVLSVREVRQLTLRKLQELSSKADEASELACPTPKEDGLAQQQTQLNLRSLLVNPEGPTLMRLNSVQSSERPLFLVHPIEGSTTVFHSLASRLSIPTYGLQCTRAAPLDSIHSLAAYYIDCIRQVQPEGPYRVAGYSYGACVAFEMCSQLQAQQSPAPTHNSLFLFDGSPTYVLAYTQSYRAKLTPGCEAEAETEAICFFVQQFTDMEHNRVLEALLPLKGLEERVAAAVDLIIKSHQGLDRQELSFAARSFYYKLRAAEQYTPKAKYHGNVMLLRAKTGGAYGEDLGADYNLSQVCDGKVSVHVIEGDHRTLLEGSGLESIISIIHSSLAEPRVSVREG
Procedure: Purification of FAS from ZR-75-1 Human Breast Cancer Cells.
Human FAS was purified from cultured ZR-75-1 human breast cancer cells obtained from the American Type Culture Collection. The procedure, adapted from Linn et al., 1981, and Kuhajda et al., 1994, utilizes hypotonic lysis, successive polyethyleneglycol (PEG) precipitations, and anion exchange chromatography. ZR-75-1 cells are cultured at 37° C. with 5% CO2 in RPMI culture medium with 10% fetal bovine serum, penicillin and streptomycin.
Ten T150 flasks of confluent cells are lysed with 1.5 ml lysis buffer (20 mM Tris-HCl, pH 7.5, 1 mM EDTA, 0.1 mM phenylmethanesulfonyl fluoride (PMSF), 0.1% Igepal CA-630) and dounce homogenized on ice for 20 strokes. The lysate is centrifuged in JA-20 rotor (Beckman) at 20,000 rpm for 30 minutes at 4° C. and the supernatant is brought to 42 ml with lysis buffer. A solution of 50% PEG 8000 in lysis buffer is added slowly to the supernatant to a final concentration of 7.5%. After rocking for 60 minutes at 4° C., the solution is centrifuged in JA-20 rotor (Beckman) at 15,000 rpm for 30 minutes at 4° C. Solid PEG 8000 is then added to the supernatant to a final concentration of 15%. After the rocking and centrifugation is repeated as above, the pellet is resuspended overnight at 4° C. in 10 ml of Buffer A (20 mM K2HPO4, pH 7.4). […] FAS protein concentration is determined using the Coomassie Plus Protein Assay Reagent (Pierce) according to manufacturer's specifications using BSA as a standard. […]
FAS activity is measured by monitoring the malonyl-CoA dependent oxidation of NADPH spectrophotometrically at OD340 in 96-well plates (Dils et al and Arslanian et al, 1975). […]
The assay is performed on a Molecular Devices SpectraMax Plus Spectrophotometer. […] Using the kinetic protocol, the wells are blanked on duplicate wells containing 100 μl of 100 mM K2HPO4, pH 6.5 and the plate is read at OD340 at 10 sec intervals for 5 minutes to measure any malonyl-CoA independent oxidation of NADPH. […] The plate is read again as above with the kinetic protocol to measure the malonyl-CoA dependent NADPH oxidation. […]

Row | Compound | IC50 (H) [µg/mL] | FAO Max: concentration at which the maximum was seen (FAO) | FAO SC 150 (FAO) | FAO Max (FAO) | IC50 [2] [µg/mL] | IC50 [3] [µg/mL] | IC50 (OV) [µg/mL] | further results
1 | CCCCCCCCC1(C)SC(=O)C=C1OCC(=O)NNc1ccc(C(F)(F)F)cc1 (centres unmarked) [Compound 12, (5-Methyl-5-octyl-2-oxo-thiophen-4-yloxy)-acetic-acid-N′-(4-trifluoromethylphenyl)-hydrazide] | 4.8 (≈ 10.5 µM) | 1.56 μg/ml ug/ml | Neg | 118% at | 5.7 (≈ 12.4 µM) | 11.3 (≈ 24.6 µM) | 9.6 (≈ 20.9 µM) | Weight Loss ([1]; day 2): 60 mg/kg: 2.7% (day 2)
2 | CCCCCCCCC1(C)SC(=O)C=C1OCC(=O)NNc1cc(C(F)(F)F)ccc1Cl (centres unmarked) [Compound 16, (5-Methyl-5-octyl-2-oxo-thiophen-4-yloxy)-acetic-acid-N′-[2-chloro-5-(trifluoromethyl)phenyl]-hydrazide] | 5.8 (≈ 11.8 µM) | 6.25 µg/mL | Neg | 137% @ | 6 (≈ 12.2 µM) | 16.5 (≈ 33.5 µM) | 7.2 (≈ 14.6 µM) | Weight Loss ([1]; day 3): 60 mg/kg: 1.7 % (day 3)
3 | CCCC=CCC=CC=CC=NN=NO [Triacsin C, 1-hydroxy-3-(E, E, E-2′,4′,7′-undecatrienylidine) triazene] |  |  |  |  |  |  |  | IC50 [4]: 8.7 µM; growth inhibition in Raji cells at (Raji cells): 1.0 µM
4 | C/C=C/C/C=C/CCC(=O)[C@H]1O[C@H]1C(N)=O [cerulenin, (2S,3R)-2,3-epoxy-4-oxo-7,10 dodecadienoyl amide] |  |  |  |  |  |  |  | activity against Mycobacterium tuberculosis [5]: no activity was found; inhibition of viral HIV protease at (viral HIV protease): 5 mg/mL
5 | (5-Methyl-5-hexyl-2-oxo-thiophen-4-yloxy)-acetic-acid-M-(4-chlorophenyl)-hydrazide [Compound 21] |  | 0.024 μg/ml ug/ml | Neg | 104% at |  |  |  | XTT (IC50) [2]: 9.8 μg/ml (M) ug/ml; FAS (IC50) (purified human FAS): Neg; XTT (IC50) (OV): 11.2 µg/mL
